Several values for one entry are separate records, joined by “and”; a condition that tells them apart may be missing. Equal entries are not always repeated.
Key:
[1] = system: Protein Standard Mixture IV (ovotransferrin, albumin, ovalbumin, carboanhydrase, myoglobin, cytochrome C); assay: Protein detection on SDS-PAGE gel by staining after electrophoresis, varying solutions (I)/(II); conditions: 100 μg/mL
Experimental: (§1) Two (2) mL of a stock buffer (a mixture of purified water (4.2 mL), 0.5 M Tris-hydrochloric acid buffer (pH 8.6) (1.0 mL), glycerol (0.8 mL), 100 g/L sodium dodecyl sulfate (1.6 mL), and 2-mercaptoethanol (0.4 mL)) was added to 2 mg of a commercially available molecular weight marker (Protein Standard Mixture IV; Merck & Co., Inc.). The mixture was heated in boiling water for 2 minutes and then cooled. Thirty (30) μL each of the resultant was dispensed in a 0.5-mL microtube and then cryopreserved at −80° C. until the use thereof. A sample diluent (a mixture of purified water (3.8 mL), 0.5 M Tris-hydrochloric acid buffer (pH 8.6) (1.0 mL), glycerol (0.8 mL), 100 g/L sodium dodecyl sulfate (1.6 mL), and 5 g/L bromophenol blue (0.8 mL)) was added to the thawed molecular weight marker, so that a dilution series with protein concentrations ranging from 0.4 ng/μL to 200 ng/μL was prepared.
(§2) The marker contained, in terms of mass, equal amounts of ovotransferrin (78 kDa), albumin (66.3 kDa), ovalbumin (42.7 kDa), carboanhydrase (30 kDa), myoglobin (16.9 kDa), and cytochrome C (12.4 kDa).
(§3) • Electrophoresis apparatus: RAPIDAS-Mini-Slab electrophoresis chamber AE6450 (ATTO Corporation) • Polyacrylamide gel: Multigel II mini 10/20 (13W) (COSMO BIO Co., Ltd.) • Buffer for electrophoresis: 27.2 mM Tris (hydroxymethyl) aminomethane, 192 mM glycine, 3.5 mM Sodium dodecyl sulfate (pH 8.3) • Fluorescence imaging analyzer: Light capture II (ATTO Corporation)
Light source: green LED (center wavelength: 525 nm)
Cut filter: R-60 (550 nm).
(§4) Each sample of the dilution series prepared in (1) above was applied to a gel at 5 μL/well (lane 1: 167 ng of protein/band; lane 2: 83.3 ng/band; lane 3: 41.7 ng/band; lane 4: 20.8 ng/band; lane 5: 10.4 ng/band; lane 6: 5.2 ng/band; lane 7: 2.6 ng/band; lane 8: 1.3 ng/band; lane 9: 0.7 ng/band; and lane 10: 0.4 ng/band) and then subjected to electrophoresis with constant current of 30 mA for 45 minutes.
(§5) After electrophoresis, the gel was immediately immersed in a solution (I) (purified water, 1% Tween80 aqueous solution, or 1% Tween20 aqueous solution) for a predetermined period of time (20 minutes or 30 minutes). Subsequently, the gel was transferred to another container and then a buffer (purified water/25 mM phosphate buffer (pH 2.5)/methanol=45/45/10 (v/v)) in which Compound 1 (100 μg/mL) had been dissolved was added. After being left to stand for 10 minutes, the gel was transferred to another container and then immersed in a solution (II) (purified water, 1% Tween80 aqueous solution, or 1% Tween20 aqueous solution) for decoloration.

[2] = system: Protein Standard Mixture IV (ovotransferrin, albumin, ovalbumin, carboanhydrase, myoglobin, cytochrome C); assay: Protein detection with staining carried out during electrophoresis; design: key to Detection: +: All bands could be detected.; −: At least one band could not be detected; conditions: compound 15 μg/mL in electrophoresis buffer
Experimental: Compound 1 or Compound 2 were dissolved in a buffer for electrophoresis (27.2 mM Tris (hydroxymethyl)aminomethane, 192 mM glycine, and 3.5 mM sodium dodecyl sulfate (pH 8.3)) at a concentration of 15 μg/mL. With the use of the above buffer, the other conditions identical to those described in Example 3 were employed to carry out electrophoresis. After completion of electrophoresis, the gel was transferred to a container containing 1% Tween80 aqueous solution, left to stand for 40 minutes, and then analyzed using a fluorescence imaging analyzer. When Compound 1 was used, bands containing 5.2 ng or more of a protein could be detected.

[3] = Water solubility / precipitation in the staining solution; assay type: physicochemical
Experimental: as §5
(§6) Protein detection was carried out using Compound 1 and Compound 2 synthesized in Example 1 under analysis conditions described in Example 3. After electrophoresis, the gel was first immersed in 1% Tween80 aqueous solution for 20 minutes and then immersed in a buffer containing Compound 1 (60 μg/mL) or Compound 2 (60 μg/mL) for 10 minutes. Subsequently, the gel was transferred to and immersed in a container containing a 1% Tween80 aqueous solution for 30 minutes. […] The total time needed for treatment was 60 minutes. The gel was analyzed using a fluorescence imaging analyzer. When Compound 1 was used, bands containing 2.6 ng or more of proteins could be detected. Compared with the result, the detection limit was 20 ng in the case of Compound 2.
After electrophoresis, the gel was immediately immersed in distilled water for 20 to 30 minutes. Subsequently, the gel was transferred to another container and then a staining solution (distilled water:methanol=1:1 (v/v)) in which Compound 3 (100 μg/mL) had been dissolved was added. After 30 minutes of immersion, the gel was transferred to another container and then immersed in a wash solution (water:methanol=90:10 (v/v)) for decoloration. The gel was observed using a fluorescence imaging analyzer.

[4] = system: Protein Standard Mixture IV (ovotransferrin, albumin, ovalbumin, carboanhydrase, myoglobin, cytochrome C); assay: Evaluation of protein detection using Compound 1 and Compound 2 (staining after electrophoresis, Tween80); design: key to Detection: +: All bands could be detected.; −: At least one band could not be detected
Experimental: as §1, §2, §3, §4, §6

[5] = Measurement of maximum absorption wavelength and maximum fluorescence wavelength; assay type: physicochemical; conditions: 25 μg/mL in purified water
Experimental: Compound 1 and Compound 2 were separately dissolved in purified water at a concentration of 25 μg/mL. The absorption spectra at a wavelength ranging from 200 nm to 800 nm and the fluorescence spectra at a wavelength ranging from 450 nm to 600 nm were measured. The absorption spectra were measured using U3310 (Hitachi High-Technologies Corporation) and the fluorescence spectra were measured using RF-1500 (Shimadzu Corporation).

`N#CC(C#N)=C1C=C(/C=C/c2ccccc2S(=O)(=O)[O-])OC(/C=C/c2ccccc2S(=O)(=O)[O-])=C1.[Na+].[Na+]` [Compound 1, 2,2′-(1E,1′E)-2,2′-(4-(dicyanomethylene)-4H-pyrane-2,6-diyl)bis(ethene-2,1-diyl)bis(sodium benzenesulfonate)salt] showed a Detection sensitivity ([1]; Conditions 1: solution (I) purified water, solution (II) purified water) of 5 ng, a Detection sensitivity ([1]; Conditions 2: solution (I) Tween80, solution (II) purified water) of 5 ng and a Detection sensitivity ([1]; Conditions 3: solution (I) purified water, solution (II) Tween80) of 5 ng. For the same compound, the Detection sensitivity ([1]; Conditions 4: solution (I) Tween80, solution (II) Tween80) was 5 ng, the Detection sensitivity ([1]; Conditions 5: solution (I) Tween20, solution (II) Tween20) was 10 ng and the Detection ([2]; Lane 1, protein 167 ng/band) was “+”. For the same compound, the Detection ([2]; Lane 2, protein 83.3 ng/band) was “+”, the Detection ([2]; Lane 3, protein 41.7 ng/band) was “+” and the Detection ([2]; Lane 4, protein 20.8 ng/band) was “+”. For the same compound, the Detection ([2]; Lane 5, protein 10.4 ng/band) was “+”, the Detection ([2]; Lane 6, protein 5.2 ng/band) was “+” and the Detection ([2]; Lane 7, protein 2.6 ng/band) was “+”. The Detection ([2]; Lane 8, protein 1.3 ng/band) was “−”, the Detection ([2]; Lane 9, protein 0.7 ng/band) was “−” and the Detection ([2]; Lane 10, protein 0.4 ng/band) was “−”. For the same compound, the “Protein per band that could be detected” value ([2]; 1% Tween80 40 minutes) was no less than 5.2 ng, the “Precipitation in the solutions during staining” value ([3]; 60 μg/mL in buffer, Example 4) was “no precipitation” and the “Precipitation in the solutions during staining” value ([3]; 100 μg/mL in purified water/25 mM phosphate buffer (pH 2.5)/methanol=45/45/10) was “no precipitation”. The “Relationship between protein concentration of each band and fluorescence intensity” value ([4]; FIG. 2, all proteins of the marker) was “no differences due to protein type were observed”, the Detection ([4]; Lane 1, protein 167 ng/band, compound 60 μg/mL) was “+” and the Detection ([4]; Lane 2, protein 83.3 ng/band, compound 60 μg/mL) was “+”. The Detection ([4]; Lane 3, protein 41.7 ng/band, compound 60 μg/mL) was “+”, the Detection ([4]; Lane 4, protein 20.8 ng/band, compound 60 μg/mL) was “+” and the Detection ([4]; Lane 5, protein 10.4 ng/band, compound 60 μg/mL) was “+”. For the same compound, the Detection ([4]; Lane 6, protein 5.2 ng/band, compound 60 μg/mL) was “+”, the Detection ([4]; Lane 7, protein 2.6 ng/band, compound 60 μg/mL) was “+” and the Detection ([4]; Lane 8, protein 1.3 ng/band, compound 60 μg/mL) was “−”. For the same compound, the Detection ([4]; Lane 9, protein 0.7 ng/band, compound 60 μg/mL) was “−”, the Detection ([4]; Lane 10, protein 0.4 ng/band, compound 60 μg/mL) was “−” and the “Detection limit (protein per band that could be detected)” value ([4]; compound 60 μg/mL, 1% Tween80 before and after staining) was no less than 2.6 ng. The “Excitation wavelength for maximum fluorescence” value [5] was 444 nm, the Maximum absorption wavelength [5] was 293 nm and 380 nm and the Maximum fluorescence wavelength [5] was 516 nm.

— patent US8263791B2, “Method and reagent for protein analysis” (National Institute of Advanced Industrial Science and …, priority 2008, dated 2012)
